Measured values reported in ChEMBL document CHEMBL5303304, “EUbOPEN Chemogenomics Library - IncuCyte” (2023).

Tests used:
Assay type in all cases: toxicity, cell-based
HEK-293T = assay: Incucyte cell viability with HEK293T; details: human, 10 µM, compound concentration 10 uM
Fibroblast = assay: Incucyte cell viability with human fibroblast; details: 10 µM, compound concentration 10 uM
U2OS = assay: Incucyte cell viability with U2OS; details: human, 10 µM, compound concentration 10 uM
Note: unitless GR value; below 1 slowed growth and below 0 cell loss.

SMILES	Growth Rate (HEK-293T; 0 h, replicate number 1)	Growth Rate (HEK-293T; 0 h, replicate number 2)	Growth Rate (HEK-293T; 12 h, replicate number 1)	Growth Rate (HEK-293T; 12 h, replicate number 2)	Growth Rate (HEK-293T; 18 h, replicate number 2)	Growth Rate (HEK-293T; 24 h, replicate number 2)	Growth Rate (Fibroblast; 0 h, replicate number 2)	Growth Rate (Fibroblast; 12 h, replicate number 2)	Growth Rate (Fibroblast; 18 h, replicate number 2)	Growth Rate (Fibroblast; 24 h, replicate number 1)	Growth Rate (Fibroblast; 24 h, replicate number 2)	Growth Rate (U2OS; 0 h, replicate number 1)	Growth Rate (U2OS; 0 h, replicate number 2)	Growth Rate (U2OS; 6 h, replicate number 1)	Growth Rate (U2OS; 6 h, replicate number 2)	Growth Rate (U2OS; 12 h, replicate number 1)	Growth Rate (U2OS; 12 h, replicate number 2)	Growth Rate (U2OS; 18 h, replicate number 2)	Growth Rate (U2OS; 24 h, replicate number 2)	Growth Rate (Fibroblast; 0 h, replicate number 1)	further results
O=C(Cc1ccccc1)Nc1nnc(N2C[C@H]3C[C@@H]2CN3c2cccnn2)s1 [A-446]	0.58	-0.11	0.83	0.97	0.86	0.94	0.67	0.18	0.19	0.33	0.04	0.34	0.56	0.82	0.43	0.68	0.59	0.8	0.77		Growth Rate (HEK-293T; 6 h, replicate number 2): 0.68; Growth Rate (HEK-293T; 24 h, replicate number 1): 0.93; Growth Rate (Fibroblast; 6 h, replicate number 1): 0.15; Growth Rate (Fibroblast; 6 h, replicate number 2): -0.04; Growth Rate (Fibroblast; 12 h, replicate number 1): 0.45; Growth Rate (Fibroblast; 18 h, replicate number 1): 0.27; Growth Rate (U2OS; 18 h, replicate number 1): 0.54; Growth Rate (U2OS; 24 h, replicate number 1): 0.87
CC(C)C[C@H](NC(=O)[C@@H](O)[C@H](N)Cc1ccccc1)C(=O)O [UBENIMEX]	0.14		0.55		0.98	0.92	-0.85	0.72	0.83		0.91	0.42		0.42		0.82					Growth Rate (HEK-293T; 6 h, replicate number 1): 0.49; Growth Rate (HEK-293T; 18 h, replicate number 1): 0.49; Growth Rate (HEK-293T; 24 h, replicate number 1): 0.59; Growth Rate (U2OS; 18 h, replicate number 1): 0.94; Growth Rate (U2OS; 24 h, replicate number 1): 0.89
CC1=C(C(=O)OCCO)[C@@H](c2ccc(C#N)cc2)NC(=O)N1c1cccc(C(F)(F)F)c1			0.73	0.75	0.71	0.97	-0.51		0.92				0.55								Growth Rate (HEK-293T; 6 h, replicate number 1): 0.61; Growth Rate (HEK-293T; 18 h, replicate number 1): 0.68; Growth Rate (HEK-293T; 24 h, replicate number 1): 0.67
CO[C@H](C)CN1CC[C@]2(C)c3cccc(O)c3C[C@H]1C2(C)C.Cl		-0.19					-0.48			0.9			-0.73	0.44	0.57	0.7	0.71	0.84	0.92	-1	Growth Rate (U2OS; 18 h, replicate number 1): 0.92; Growth Rate (U2OS; 24 h, replicate number 1): 0.84
Cn1nccc1Nc1nccc(-c2cc3c(s2)C(C)(C)N(CCN2CCOCC2)C3=O)n1 [TEMUTERKIB]	0.39			0.76		1	-0.1			0.12		-0.62	-0.42	0.47	0.51	0.66		0.82	0.9	-0.63	Growth Rate (HEK-293T; 6 h, replicate number 2): 0.33; Growth Rate (Fibroblast; 12 h, replicate number 1): -0.93; Growth Rate (Fibroblast; 18 h, replicate number 1): 0.27
CCCCOc1c(C(=O)c2c(F)cc(C)cc2F)c[nH]c2nncc1-2	-1											-1								-1	
O=C(Nc1ccc(-n2nc(-c3cccnc3)cc2C(F)(F)F)cn1)c1ccc(-c2ccccc2)c(F)c1 [BI 2049]	-0.8	0.47						0.85	0.98	0.99	0.91		-0.06	0.83	0.46		0.84	0.93	0.97		
Cc1cc(NC(=O)c2cccc(NC(=O)/C=C/CN(C)C)c2)ccc1Nc1nccc(-c2cccnc2)n1	0	0.65	-0.26	-0.35	-0.32	-0.26	0.14	-0.15	-0.3	-0.22	-0.29	-1				0.69		0.93	0.51	-1	Growth Rate (HEK-293T; 6 h, replicate number 1): -0.35; Growth Rate (HEK-293T; 6 h, replicate number 2): -0.41; Growth Rate (HEK-293T; 18 h, replicate number 1): -0.23; Growth Rate (HEK-293T; 24 h, replicate number 1): -0.19; Growth Rate (Fibroblast; 6 h, replicate number 1): 0.07; Growth Rate (Fibroblast; 6 h, replicate number 2): 0.32; Growth Rate (Fibroblast; 12 h, replicate number 1): -0.2; Growth Rate (Fibroblast; 18 h, replicate number 1): -0.24; Growth Rate (U2OS; 18 h, replicate number 1): 0.46; Growth Rate (U2OS; 24 h, replicate number 1): 0.29
Cc1nc2ccc(Cl)cc2c(-c2ccccc2)c1CC(=O)O.Cl	0.38							0.53	0.88		0.96	0.45		0.43			0.93				
O=C1NC(c2cccc([N+](=O)[O-])c2)=CCN1c1ccccc1O [ICILLIN]		0.85					-0.28	0.48	0.89		0.91		1		0.82		0.76	0.96	0.93	0.99	Growth Rate (Fibroblast; 6 h, replicate number 1): -0.8; Growth Rate (Fibroblast; 6 h, replicate number 2): 0.04; Growth Rate (Fibroblast; 12 h, replicate number 1): 0.02
O=C(Nc1ccc(Cl)c(-c2ccccn2)c1)c1cccc(COc2ccc(Br)cc2CNCCO)c1.O=CO			-0.44	-0.32	-0.2	-0.07	0.59	-0.14	-0.28	0.25	-0.36			0.38	0.78	0.61	0.6	0.36	0.33	-0.98	Growth Rate (HEK-293T; 6 h, replicate number 1): -0.57; Growth Rate (HEK-293T; 6 h, replicate number 2): -0.56; Growth Rate (HEK-293T; 18 h, replicate number 1): -0.3; Growth Rate (HEK-293T; 24 h, replicate number 1): -0.2; Growth Rate (Fibroblast; 6 h, replicate number 2): 0.09; Growth Rate (Fibroblast; 12 h, replicate number 1): 0.51; Growth Rate (Fibroblast; 18 h, replicate number 1): 0.29; Growth Rate (U2OS; 18 h, replicate number 1): 0.3; Growth Rate (U2OS; 24 h, replicate number 1): 0.53
